{"source": "patent US10646498B2", "about": "“Composition for preventing, alleviating or treating muscle diseases or improving muscular function” (AAT COSTECH CO., LTD., priority 2015, dated 2020)", "key": {"p-p70S6K": {"tested_on": "p-p70S6K", "experiment": "p-p70S6K protein expression in L6 muscle cells (Western blot)", "assay_type": "cell-based", "details": "fucosterol 1 and 10 μM, FIG. 2", "experimental": "(§1) As muscle cells, L6 myoblasts (ATCC CRL-1458, Manassas, Va., USA) were added to a 6-well plate at a density of 2×10^5 cells/mL together with a Dulbecco's modified Eagle's medium (DMEM; Hyclone) supplemented with 10% fetal bovine serum (FBS; Hyclone, Logan, Utah, USA). […] In this case, a group in which the cells were treated with 0.01% DMSO instead of the sample was used as the control. This procedure was carried out at an interval of 2 days for 6 days to differentiate the cells, and the cells were then dissolved in an NP-40 buffer (ELPIS-Biotech, Daejeon, Korea) containing a proteinase inhibitor cocktail. The cells lysed in the buffer were transferred to a 1.5 ml tube, and centrifuged at 13,000 rpm for 10 minutes to collect only a supernatant. The supernatant was quantified using a Bradford method (Bradford, Bio-Rad Laboratories Inc., Hercules, Calif., USA). The quantified proteins were boiled for 5 minutes, and separated through 10% SDS-PAGE, and the separated proteins were transferred to a nitrocellulose membrane. A p-mTOR primary antibody (Cell Signaling Technology, Beverly, Mass., USA) was diluted with 2.5% bovine serum albumin (BSA) at a ratio of 1:1,000, and reacted with the proteins transferred to the nitrocellulose membrane at room temperature for 20 hours. […]"}, "MyoD": {"tested_on": "MyoD", "experiment": "MyoD mRNA expression in L6 muscle cells (RT-PCR), muscle differentiation", "assay_type": "cell-based", "details": "fucosterol 1 and 10 μM, 6 days, vs 0.01% DMSO control, FIG. 3", "experimental": "(§2) As muscle cells, L6 myoblasts (ATCC) were added to a 6-well plate at a density of 2×10^5 cells/mL together with DMEM (Hyclone) supplemented with 10% FBS (Hyclone). When the cell density reached approximately 80 to 85%, the medium contained in the wells was removed, and the fucosterol isolated and purified in Example 3 was dissolved at concentrations of 1 and 10 μM in DMEM (Hyclone) supplemented with 2% HS (Hyclone), and the cells were treated with the fucosterol to induce myotube differentiation. In this case, a group in which the cells were treated with 0.01% DMSO instead of the sample was used as the control. This procedure was carried out at an interval of 2 days for 6 days to differentiate the cells, and total RNA was isolated using a TRIzol reagent (Invitrogen, Carlsbad, Calif., USA). The isolated total RNA was quantified using NanoDrop 1000 (Thermo Fisher Scientific Inc., MA, USA). 16 μL of the quantified RNA was synthesized into cDNA using Reverse Transcriptase Premix (ELPIS-Biotech) and a PCR machine (Gene Amp PCR System 2700, Applied Biosystems, MA, USA) under conditions of 42° C. and 55 minutes and 70° C. and 15 minutes. […]"}, "myogenin": {"tested_on": "myogenin", "experiment": "myogenin mRNA expression in L6 muscle cells (RT-PCR), muscle differentiation", "assay_type": "cell-based", "details": "fucosterol 1 and 10 μM, 6 days, vs 0.01% DMSO control, FIG. 3", "experimental": "as §2"}, "atrogin-1": {"tested_on": "atrogin-1", "experiment": "atrogin-1 mRNA expression in TNF-α-treated L6 muscle cells (RT-PCR), muscle protein degradation", "assay_type": "cell-based", "details": "differentiated L6 muscle cells, 50 ng/mL TNF-α, fucosterol 1 and 10 μM, 6 hours, FIG. 6", "experimental": "(§3) As muscle cells, L6 myoblasts (ATCC) were added to a 6-well plate at a density of 2×10^5 cells/mL together with DMEM (Hyclone) supplemented with 10% FBS (Hyclone). When the cell density reached approximately 80 to 85%, the medium contained in the wells was removed, and the cells were treated with DMEM (Hyclone) supplemented with 2% HS (Hyclone) to induce myotube differentiation. Cell differentiation was performed for a total of 6 days while replacing the medium with a fresh medium every 2 days. After the differentiation, the fucosterol isolated and purified in Example 3 was dissolved at concentrations of 1 and 10 μM in DMEM (Hyclone) supplemented with 50 ng/mL of tumor necrosis factor alpha (TNF-α; PeproTech, Rocky Hills, N.J., USA), and the cells were then treated with the fucosterol. After 6 hours, total RNA was isolated using a TRIzol reagent (Invitrogen). The isolated total RNA was quantified using NanoDrop 1000 (Thermo Fisher Scientific Inc., MA, USA). 16 μL of the quantified RNA was synthesized into cDNA using Reverse Transcriptase Premix (ELPIS-Biotech) and a PCR machine (Gene Amp PCR System 2700; Applied Biosystems) under conditions of 42° C. and 55 minutes and 70° C. and 15 minutes. […]"}, "p-4EBP1": {"tested_on": "p-4EBP1", "experiment": "p-4EBP1 protein expression in L6 muscle cells (Western blot)", "assay_type": "cell-based", "details": "fucosterol 1 and 10 μM, FIG. 2", "experimental": "as §1"}, "[1]": {"tested_on": "Wistar rats with TNF-α-induced muscle atrophy", "details": "300 mg/kg, 1344 h", "experimental": "Five-week-old Wistar rats (Daehan Biolink, Korea) were adapted for one week, and fed 100 ng/g of TNF-α for 2 weeks to induce muscle atrophy. Thereafter, the rats were randomly divided into a total of 6 groups based on the weights thereof, each group consisting of 8 rats, which were then used in this experiment. […] In this case, a group in which TNF-α was added to the same amount of 0.25% carboxymethyl cellulose which the experimental group ingested was used as the control.\nAfter the sample was administered for 8 weeks, muscles were incised from right lower calves of the rats, and weighed using a microbalance (Mettler PE160, USA)."}, "MuRF-1": {"tested_on": "MuRF-1", "experiment": "MuRF-1 mRNA expression in TNF-α-treated L6 muscle cells (RT-PCR), muscle protein degradation", "assay_type": "cell-based", "details": "differentiated L6 muscle cells, 50 ng/mL TNF-α, fucosterol 1 and 10 μM, 6 hours, FIG. 6", "experimental": "as §3"}, "p-mTOR": {"tested_on": "p-mTOR", "experiment": "p-mTOR protein expression in L6 muscle cells (Western blot)", "assay_type": "cell-based", "details": "fucosterol 10 μM, treated every 2 days for 6 days, vs 0.01% DMSO control, FIG. 1", "experimental": "As muscle cells, L6 myoblasts (ATCC CRL-1458, Manassas, Va., USA) were added to a 6-well plate at a density of 2×10^5 cells/mL together with a Dulbecco's modified Eagle's medium (DMEM; Hyclone) supplemented with 10% fetal bovine serum (FBS; Hyclone, Logan, Utah, USA). […] The supernatant was quantified using a Bradford method (Bradford, Bio-Rad Laboratories Inc., Hercules, Calif., USA). The quantified proteins were boiled for 5 minutes, and separated through 10% SDS-PAGE, and the separated proteins were transferred to a nitrocellulose membrane. […]\nMuscle cells were treated with the ultra-high pressure extract of Sargassum fulvellum prepared in Example 1-6, the supercritical fluid extract of Sargassum fulvellum prepared in Example 1-7, the subcritical fluid extract of Sargassum fulvellum prepared in Example 1-8, the ultra-high pressure extract of Sargassum fusiforme prepared in Example 2-6, the supercritical fluid extract of Sargassum fusiforme prepared in Example 2-7, and the subcritical fluid extract of Sargassum fusiforme prepared in Example 2-8 at a concentration of 20 ppm in the same manner as in Example 4. A p-mTOR protein band was chromogenically developed using an ECL Western blotting detection reagent (Amersham, Tokyo, Japan), and a density of the chromogenically developed protein band was measured using a G;BOX EF imaging system (Syngene, Cambridge, UK). […]"}}}
{"compound": "C/C=C(\\CC[C@@H](C)[C@H]1CC[C@H]2[C@@H]3CC=C4C[C@@H](O)CC[C@]4(C)[C@H]3CC[C@]12C)C(C)C", "note": "[Fucosterol, (3-beta,24E)-stigmasta-5,24(28)-dien-3-ol]", "values": [{"measurement": "protein expression level of p-p70S6K", "setting": "p-p70S6K", "value": "increased"}, {"measurement": "mRNA expression of MyoD", "setting": "MyoD", "value": "increased"}, {"measurement": "mRNA expression of myogenin", "setting": "myogenin", "value": "increased"}, {"measurement": "mRNA expression of atrogin-1", "setting": "atrogin-1", "value": "decreased"}, {"measurement": "protein expression level of p-4EBP1", "setting": "p-4EBP1", "value": "increased"}, {"measurement": "Mean weight of calf muscles", "setting": "[1]", "value": "522.1 ± 30.6", "unit": "mg"}, {"measurement": "increase in weights of the muscles compared to the control", "setting": "[1]", "value": 25.78, "unit": "%"}, {"measurement": "mRNA expression of MuRF-1", "setting": "MuRF-1", "value": "decreased"}, {"measurement": "expression level of p-mTOR", "setting": "p-mTOR", "value": "increased"}]}
